From ChEMBL document CHEMBL3297657, “Synthesis and antitumor activities of novel α-aminophosphonate derivatives containing an alizarin moiety” (Eur J Med Chem, 2014) come the findings set out here.

The source made the active and inactive calls. No cut-off for these calls is given here.

For one experiment, the system named is KB. The experiment is described as follows: Cytotoxicity against human KB cells after 48 hrs by MTT assay. The class given is functional, cell-based. Background: Formazan colour is commonly taken as a measure of viable cells.
The next experiment concerns HeLa. As to the kind of experiment: cells. The conditions noted are these: Homo sapiens, 48 h.
The subject of experiment [1] is NCI-H460. As to the kind of experiment: Induction of apoptosis in human NCI-H460 cells assessed as early apoptotic cells at 5 to 20 uM after 24 hrs by Annexin V/propidium iodide staining-based flow cytometry relative to control. The class given is functional, cell-based. For orientation: Flow cytometry measures light scatter and fluorescence of single cells or particles in a stream.

Experiment [2] has as its system NCI-H460. As to the kind of experiment: Cytotoxicity against human NCI-H460 cells after 48 hrs by MTT assay. The conditions noted are these: NCI-H460, 48 h. Format: functional, cell-based.
A further experiment concerns MGC-803. The experiment is described as follows: Cytotoxicity against human MGC803 cells after 48 hrs by MTT assay. Format: functional, cell-based. As to conditions: MGC-803, 48 h.
The subject of a further experiment is HepG2. As to the kind of experiment: cells. As to conditions: Homo sapiens, HepG2, 48 h.
For another experiment, the system named is HUVEC. As to the kind of experiment: Cytotoxicity against HUVEC after 48 hrs by MTT assay. As to conditions: Homo sapiens. Format: cell-based.
A further experiment relates to CNE. As to the kind of experiment: Cytotoxicity against human CNE cells after 48 hrs by MTT assay. The class given is functional, cell-based.
Another experiment concerns HCT-116. As to the kind of experiment: cells. As to conditions: Homo sapiens, HCT-116, 48 h.
Another experiment deals with A549. The experiment is described as follows: cells. The conditions noted are these: Homo sapiens, A549, 48 h.

Description for A549: Cytotoxicity against human A549 cells after 48 hrs by MTT assay
Description for HCT-116: Cytotoxicity against human HCT116 cells after 48 hrs by MTT assay
Description for HeLa: Cytotoxicity against human HeLa cells after 48 hrs by MTT assay
Description for HepG2: Cytotoxicity against human HepG2 cells after 48 hrs by MTT assay

The IC50 is the midpoint of a concentration-inhibition curve. Low values mean higher potency, high ones lower potency. On to `CCOP(=O)(OCC)C(NC(=O)C(C)Oc1ccc2c(c1O)C(=O)c1ccccc1C2=O)c1ccccc1Br` (stereo not given), for which the IC50 in the experiment with KB came out at 0.13 µM; in the experiment on HeLa, 41.6 µM; in the experiment on NCI-H460 [2], 4.11 µM; in the experiment with MGC-803, 15.1 µM; in the experiment with HepG2, 24.1 µM; in the experiment with HUVEC it was 24.1 µM. Further, the IC50 with CNE came to 47.3 µM; in the experiment on HCT-116, 7.31 µM; with A549, 11.4 µM. Further, in the experiment on NCI-H460 [1], the result was Active.
On to `CCOP(=O)(OCC)C(NC(=O)C(C)Oc1ccc2c(c1O)C(=O)c1ccccc1C2=O)c1ccccc1Cl` (stereo not given), for which the concentration for half-maximal inhibition (IC50) in the experiment with KB amounted to 0.14 µM; with HeLa it was 20.9 µM; in the experiment on NCI-H460 [2], 3.8 µM; with MGC-803 it was 11 µM; in the experiment with HepG2, 19.9 µM; in the experiment on HUVEC, 19.9 µM. Besides, the half-inhibitory concentration (IC50) with CNE amounted to 43.1 µM; in the experiment with HCT-116, 14.8 µM; in the experiment on A549 it was 10.1 µM. In addition, in the experiment on NCI-H460 [1], the outcome was Active.
Take `CCOP(=O)(OCC)C(NC(=O)C(C)Oc1ccc2c(c1O)C(=O)c1ccccc1C2=O)c1ccccc1` (stereo not given): the IC50 with KB is 0.65 µM; with HeLa it was greater than 50 µM; in the experiment on NCI-H460 [2] it was 8.11 µM; in the experiment with MGC-803, 6.66 µM; in the experiment on HepG2, greater than 50 µM; in the experiment with HUVEC, greater than 50 µM. Besides, the IC50 was greater than 50 µM in the experiment on CNE, 8.07 µM with HCT-116 and 34.6 µM in the experiment on A549. For the same molecule, in the experiment with NCI-H460 [1], the result was Active.
Consider `CCOP(=O)(OCC)C(NC(=O)C(C)Oc1ccc2c(c1O)C(=O)c1ccccc1C2=O)c1cccc(C)c1` (stereo not given), for which the IC50 in the experiment with KB is 9.68 µM; in the experiment on HeLa it was 17.4 µM; in the experiment with NCI-H460 [2], 9.31 µM; with MGC-803, 8.02 µM; in the experiment on HepG2 it was greater than 50 µM; with HUVEC, greater than 50 µM. Further, the IC50 with CNE came out at 30.5 µM; in the experiment on HCT-116, 36.2 µM; in the experiment with A549, 25.6 µM. In addition, in the experiment with NCI-H460 [1], the result was Active.
